Measurements published in patent publication US5288851A, “Renin inhibitors, processes for preparing them, methods for using them, and compositions containing them” (Warner-Lambert Company, priority 1992, dated 1994).

Target: T1, renin (Homo sapiens, UniProt P00797)
T1 sequence (P00797 67-406): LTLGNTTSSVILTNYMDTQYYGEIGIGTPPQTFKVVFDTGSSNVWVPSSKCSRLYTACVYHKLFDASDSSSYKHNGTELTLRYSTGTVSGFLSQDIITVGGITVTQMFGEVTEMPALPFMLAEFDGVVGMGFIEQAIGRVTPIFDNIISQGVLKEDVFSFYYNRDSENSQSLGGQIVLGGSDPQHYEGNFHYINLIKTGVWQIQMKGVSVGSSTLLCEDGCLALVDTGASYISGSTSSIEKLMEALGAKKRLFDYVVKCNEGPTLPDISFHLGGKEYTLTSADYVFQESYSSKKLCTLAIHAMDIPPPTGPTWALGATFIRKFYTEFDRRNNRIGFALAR
Experiment: in vitro renin inhibitory activity, radioimmunoassay for angiotensin I
Type: biochemical
Conditions: renin incubated two hours at 37° with substrate angiotensinogen; angiotensin I by radioimmunoassay; molar concentration causing 50% inhibition
Experimental: The effectiveness of the aforementioned compounds is determined by a test for in vitro renin inhibitory activity. This activity is determined by a standard radioimmunoassay for angiotensin I. In this assay the enzyme, renin, incubated for two hours at 37° in the presence of a substrate, angiotensinogen, generates the product, angiotensin I. Test compounds are added to the incubation mixture. Relative activity is reported as the IC50, which is the molar concentration of test compound causing a 50% inhibition of the renin activity.

Q: For `C=CC[C@H](NC(=O)[C@H](Cc1ccccc1)NS(=O)(=O)N(C)C)C(=O)N[C@@H](CC(C)C)[C@@H](O)CC(=O)NCC(C)CC` (stereo partly drawn) [MeNSO2 PHEALGSTANHCH2 CH(CH3)CH2 CH3, Me2 NSO2 --PHE--ALG--STA--NHCH2 CH(CH3)CH2 CH3], which IC50 is on record?
A: 7 nM

Q: Which IC50 does the source give for “Me2 NSO2 --PHE--PGY--STA--NHCH2 CH(CH3)CH2 CH3 [Me2 NSO2 PHEPGYSTANHCH2 CH(CH3)CH2 CH3]” here?
A: 34 nM

Q: MeNSO2 PHEPGYCYSTANHCH2 CH(CH3)CH2 CH3 was tested. Which IC50 did it give?
A: 1.1 nM

Q: How did the IC50 turn out when MeNSO2 PHEALGCYSTANHCH2 CH(CH3)CH2 CH3 was run?
A: 1.5 nM

Q: How did the IC50 turn out when `CCC(C)CNC(=O)CC(O)C(CC(C)C)NC(=O)C(Cc1cnc[nH]1)NC(=O)C(Cc1ccccc1)NS(=O)(=O)N(C)C` (stereo not drawn) [Me2 NSO2 PHEHISSTANHCH2 CH(CH3)CH2 CH3, Me2 NSO2 --PHE--HIS--STA--NHCH2 CH(CH3)CH2 CH3] was run?
A: 41 nM

Q: How did the IC50 turn out when `CCC(C)CNC(=O)CC(O)C(CC(C)C)NC(=O)C(Cc1cnc[nH]1)NC(=O)C(Cc1ccc(OC)cc1)NS(=O)(=O)N(C)C` (stereo not drawn) [Me2 NSO2 TYR(OMe)HISSTANHCH2 CH(CH3)CH2 CH3] was run?
A: ~3000 nM
